Reference: publication PMC9013686, “Inter-individual variation in chlorpyrifos toxicokinetics characterized by physiologically based kinetic (PBK) and Monte Carlo simulation comparing human liver microsome and Supersome™ cytochromes P450 (CYP)-specific kinetic data as model input” (Archives of Toxicology, 2022)

Assays:
[1] = target: CYP3A4 (Homo sapiens, UniProt P08684); experiment: Supersome CYP3A4 kinetic incubations; format: in vitro ADME; set-up: purchased Corning (Amsterdam, The Netherlands); host or cells: baculovirus-transfected insect cells
Experimental: The final incubations were carried out in 50 mM Tris–HCl (pH 7.4) containing 5 mM MgCl2, 1 mM EDTA (as an A-esterase PON1 inhibitor) (Bizoń and Milnerowicz [2018]), 50 µM iso-OMPA (as a B-esterases inhibitor) (Lane et al. [2006]), Supersome™ isoform (at final concentration of 0.005 nmol CYP/ml for 1A2, 0.001 nmol CYP/ml for 2B6, 0.01 nmol CYP/ml for 2C19, and 0.01 nmol CYP/ml for 3A4) and CPF at different final concentrations (0.05, 0.1, 0.25, 0.5, 1, 5 and 10 µM for 1A2, 0.05, 0.1, 0.25, 0.5, 1, 5 10 and 25 µM for 2B6, 1, 2.5, 5, 10, 25 and 50 µM for 2C19, and 0.5, 1, 2.5, 5, 10, 25 and 50 µM for 3A4), which were added from 100 times concentrated stock solutions in ACN. After 1 min preincubation in a 37 °C water bath, 5 µl NADPH (final concentration 1 mM) was added to the incubation system. Control incubations were performed by replacing NADPH with the same amount of Tris–HCl (pH 7.4). The total volume of the incubation mixtures was 200 µl. The incubations lasted for 2 min at 37 °C and were terminated by addition of 50 µl ice cold ACN and subsquently put on ice. After that, samples were centrifuged at 16,000 g (4 ℃) for 5 min and supernatants of samples were separated into two equal portions for Ultra-Performance Liquid Chromatography-Photodiode Array (UPLC-PDA) and Liquid Chromatography Mass Spectrometry (LC–MS/MS) analysis, respectively.
(§1) To normalize for differences in intrinsic CYP activity between Supersome™ and pooled HLMs and enable scaling of the activities to the in vivo situation, CYP-specific ISEF values need to be established. […] The incubation method was similar as used for the CPF kinetic incubation assay described above, except that certain incubation conditions were replaced by the conditions listed in Table 1. The samples obtained were analyzed by UPLC-PDA for acetaminophen, 4-hydroxymephenytoin, and 6β-hydroxytestosterone formation catalyzed by 1A2, 2C19 and 3A4, or LC–MS/MS for (±)-hydroxybupropion formation catalyzed by 2B6.
(§2) As mentioned before, the in vitro apparent kinetic parameters (Vmax and Km) for pathway 1 and pathway 2 in the HLM-based approach, and pathway 3 in both approaches were all obtained directly from reported studies using pooled HLMs (Buratti et al. [2003]; Sams et al. [2004]; Zhao et al. [2019]). Therefore, no extra calculations were required to define these parameters. The kinetic parameters for the ISEF calculation, pathway 1 and 2 in the Supersome™-based approach, and pathway 4 in both approaches (25 individuals) were all obtained by fitting the experimental data to the Michaelis–Menten model using GraphPad (GraphPad Prism 5.0 software, San Diego, CA, USA). It should be noted that the kinetic parameters for pathway 4 used in the two approaches were calculated as mean of the kinetic parameters (Vmax and Km) obtained using 25 individual HP samples (with correction for total protein concentration of each plasma sample).
The in vivo Kmi values were assumed to be equal to the apparent Kmi(app) values (µM) obtained in the in vitro incubations, while the in vivo Vmaxi for each CYP isoform was derived from their corresponding apparent CYP isoform Vmaxi(app) (pmol/min/pmolCYP) using Eq. 3:3 Vmaxi=Vmaxiapp×CYPiabundance×ISEF×60×MPL×1000×VL/1,000,000,

[2] = target: T1, CYP3A4 in pooled HLMs (Homo sapiens, UniProt P08684); experiment: Pooled HLM incubation with CYP3A4 probe substrate (ISEF determination); format: in vitro ADME; settings: 6β-hydroxytestosterone formation
T1 construct: the native CYPs present in HLM; tissue Corning (Amsterdam, The Netherlands); host or cells: pooled human liver microsomes, 150 donors, mixed gender
Experimental: as §1
as §2, with “The kinetic parameters for the ISEF calculation, pathway 1 and 2 in the Supersome™-based approach, and pathway 4 in both approaches (25 individuals) were all obtained by fitting the experimental data to the Michaelis–Menten model using GraphPad (GraphPad Prism 5.0 software, San Diego, CA, USA).” left out

Chain of CYP3A4 (P08684 2-503 limits assumed): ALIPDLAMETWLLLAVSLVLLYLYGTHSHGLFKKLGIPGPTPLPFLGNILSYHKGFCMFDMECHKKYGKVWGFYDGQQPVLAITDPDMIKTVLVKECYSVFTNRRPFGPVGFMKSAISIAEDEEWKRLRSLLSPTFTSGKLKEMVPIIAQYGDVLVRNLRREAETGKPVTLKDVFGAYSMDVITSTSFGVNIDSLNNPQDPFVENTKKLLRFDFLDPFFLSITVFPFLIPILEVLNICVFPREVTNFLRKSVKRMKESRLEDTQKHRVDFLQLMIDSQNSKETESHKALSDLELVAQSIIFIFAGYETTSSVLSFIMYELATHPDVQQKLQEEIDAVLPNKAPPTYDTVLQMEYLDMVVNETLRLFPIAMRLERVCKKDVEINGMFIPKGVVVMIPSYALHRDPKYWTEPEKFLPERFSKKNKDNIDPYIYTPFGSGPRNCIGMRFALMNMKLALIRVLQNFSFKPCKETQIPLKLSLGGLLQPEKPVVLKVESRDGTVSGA
T1 sequence (P08684 2-503): as the sequence (P08684 2-503 limits assumed) above

C[C@]12CC[C@H]3[C@@H](CCC4=CC(=O)CC[C@@]43C)[C@@H]1CC[C@@H]2O [Testosterone, testosterone, reference compound]
Vmax (Supersome) ([1]; 6β-hydroxytestosterone formation, Supersome CYP3A4): 1179 pmol/min/pmol CYP | ISEF ([1]; CYP3A4, calculated on the basis of Eq. 4 from probe substrate Vmax in pooled HLMs and Supersome): 0.11 | Vmax (pooled HLMs) [2]: 17.29 nmol/min/mg microsomal protein
